Test results published in article PMC6471705, “Evaluation of the Enzyme Inhibitory and Antioxidant Activities of Entada spiralis Stem Bark and Isolation of the Active Constituents” (Molecules, 2019).
In brackets after ≈: the same amount, converted by molar mass. Several values for one entry are separate records, joined by “and”; a condition that tells them apart may be missing. Equal entries are not always repeated. Where two headings read alike, the source gives them in different places.

How the values were obtained:
[1] = DPPH radical scavenging assay; conditions: for IC50: Table 3, molar units; for IC50 DPPH Assay: mean ± SEM of triplicate
Method: Modified methods from Sulaiman et al. and Ahmed et al. were used. Briefly, 150 µL of freshly prepared DPPH^• solution (0.4 M concentration) was carefully introduced into 96 round microplate wells each. 100 µL of sample/ standard (7.81–500 µg/mL) were added. Blanks contained only methanol and DPPH^•. Ascorbic acid (dissolved in distilled water) and quercetin (dissolved in MeOH) were used as standard. The plate was left in the dark for 25 min to activate. […] Tests were conducted in triplicate and the percentage inhibition of each sample/standard was calculated using the following equation:(1) (% DPPH inhibition)= [Ac−As/Ac] ×100 where, Ac = absorbance of DPPH radical in MeOH, As = absorbance of DPPH radical in sample or standard. IC50 values obtained from graphical plot from percentage inhibition against concentration were used to define the radial scavenging activity of each sample.

[2] = ABTS radical scavenging assay; conditions: for IC50: Table 3, molar units; for IC50 ABTS Assay: mean ± SEM of triplicate
Method: A method reported by Zheleva-Dimitrova et al. was adopted with slight modifications. Stock solutions of ABTS (7 mM) and potassium persulphate (2.45 mM) were prepared using distilled water. The working solution was prepared by adding 1 mL of ABTS solution to same amount of potassium persulphate solution. The reaction mixture was left overnight for 16 h to generate the intensely blue coloured ABTS^•+. 1 mL of ABTS^•+ was then added to 50 mL of MeOH and distributed (100 µL each) into a 96 microplate well containing 100 µL of serially diluted sample/ standard (7.81–125 µg/mL). Absorbance was measured at 734 nm against blank (containing sample and MeOH only). Test was conducted in triplicate. Samples were compared with trolox and ascorbic acid and percentage inhibition was calculated as follows:(2) (% ABTS inhibition)= [Ac−As/Ac] ×100 where, Ac = absorbance of ABTS^• in MeOH, As = absorbance ABTS^•+ in sample/standard.
The radical scavenging activity was determined from the IC50 values obtained from the percentage inhibition curve against different concentrations of the sample/standard.

[3] = Dot-blot staining assay, DPPH reagent; conditions: 1 mg/mL, compared to ascorbic acid positive control
Method: (§1) Rapid detection of the free radical scavenging activity of isolated compounds from active fractions of E. spiralis methanol extract was carried out using a method adapted from Sarian et al.. Three detection agents viz., DPPH^•, ABTS^•+ and β-carotene were used. Briefly, few drops of each compound were spotted on a TLC plate (1.5 × 8 cm) using capillary tube and dried for few minutes at room temperature. The plate was then carefully dipped in 0.5% DPPH^• in methanol for few seconds. The plate was allowed to dry and the colour change was observed. Yellow spots on a purple background indicate radical scavenging activity and intensity of the yellow colour is proportional to the antioxidant activity. A TLC-β-carotene assay was also conducted using 0.05% of β-carotene in chloroform. A few drops of each sample (1 mg/mL) was spotted on TLC plate an allowed to dry after which it was dipped into β-carotene solution for 20 s. The plate was dried completely under direct sunlight for 3 h. Yellow or orange spot on a white background indicates activity. The intensity of the colour is dependent on the extent of antioxidant activity of the compound. TLC ABTS^•+ test was performed by mixing 2.45 mM of potassium persulphate with 7 mM of ABTS and kept in the dark for 16 hours to generate ABTS^•+. Already spotted TLC plates were then dipped into it for 10 s and allowed to dry at room temperature. White or orange spots on a bluish green background indicates activity.

[4] = Dot-blot staining assay, ABTS reagent; conditions: 1 mg/mL, compared to ascorbic acid positive control
Method: as §1

[5] = Dot-blot staining assay, β-carotene; conditions: 1 mg/mL, compared to ascorbic acid positive control
Method: as §1

α-amylase = molecular target: T1, α-amylase (Sus scrofa, UniProt P00690); assay: In vitro α-amylase inhibitory assay (starch-iodine method); format: biochemical; conditions: mean ± SEM of triplicate
T1 sequence (P00690 16-511): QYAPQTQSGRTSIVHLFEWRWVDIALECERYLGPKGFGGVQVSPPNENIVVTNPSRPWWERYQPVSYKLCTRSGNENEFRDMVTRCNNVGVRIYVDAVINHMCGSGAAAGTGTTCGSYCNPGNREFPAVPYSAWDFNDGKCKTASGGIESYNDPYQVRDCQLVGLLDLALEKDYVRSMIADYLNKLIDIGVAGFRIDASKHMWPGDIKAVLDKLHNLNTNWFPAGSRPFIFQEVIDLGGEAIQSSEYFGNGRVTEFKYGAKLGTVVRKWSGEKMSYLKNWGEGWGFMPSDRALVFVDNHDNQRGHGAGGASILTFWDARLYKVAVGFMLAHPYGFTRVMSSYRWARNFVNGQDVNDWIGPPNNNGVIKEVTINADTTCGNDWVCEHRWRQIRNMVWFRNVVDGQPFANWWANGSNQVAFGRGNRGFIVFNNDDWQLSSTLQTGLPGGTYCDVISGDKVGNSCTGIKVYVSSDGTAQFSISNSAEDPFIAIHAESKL
Method: The procedure proposed by Johnson et al. was adopted and modified for a microplate-based method carried out by Xiao et al.. Briefly, 25 µL of α-amylase solution (1 U/mL in 0.2 M phosphate buffer at pH 7) was introduced into 96 well flat bottom microplates followed by addition of 25 µL of serially diluted sample/standard (7.8–1000 µg/mL) and incubated for 5 min at 37 °C followed by 25 µL of 1% starch in buffer (boiled for 15 min) and re-incubated for 45 min at 50 °C. Next was the addition of 100 µL of 1% iodine solution and 50 µL of distilled water. The microplate was tightly covered during incubation to prevent evaporative loss. […] All determinations including sample, control, and blank were conducted in triplicate under the same reaction conditions. […] Inhibitory activity was determined using the following equation:(3) (% enzyme inhibition)= 1−[Abs/Contr] ×100 where, Abs is the absorbance of the sample or standard. Contr is the absorbance of the control without enzyme.

α-glucosidase [6] = molecular target: α-glucosidase (Saccharomyces cerevisiae, UniProt P53341); assay: In vitro α-glucosidase inhibitory assay (pNPG substrate); format: biochemical
Sequence of α-glucosidase (Saccharomyces cerevisiae, UniProt P53341) (P53341 whole entry): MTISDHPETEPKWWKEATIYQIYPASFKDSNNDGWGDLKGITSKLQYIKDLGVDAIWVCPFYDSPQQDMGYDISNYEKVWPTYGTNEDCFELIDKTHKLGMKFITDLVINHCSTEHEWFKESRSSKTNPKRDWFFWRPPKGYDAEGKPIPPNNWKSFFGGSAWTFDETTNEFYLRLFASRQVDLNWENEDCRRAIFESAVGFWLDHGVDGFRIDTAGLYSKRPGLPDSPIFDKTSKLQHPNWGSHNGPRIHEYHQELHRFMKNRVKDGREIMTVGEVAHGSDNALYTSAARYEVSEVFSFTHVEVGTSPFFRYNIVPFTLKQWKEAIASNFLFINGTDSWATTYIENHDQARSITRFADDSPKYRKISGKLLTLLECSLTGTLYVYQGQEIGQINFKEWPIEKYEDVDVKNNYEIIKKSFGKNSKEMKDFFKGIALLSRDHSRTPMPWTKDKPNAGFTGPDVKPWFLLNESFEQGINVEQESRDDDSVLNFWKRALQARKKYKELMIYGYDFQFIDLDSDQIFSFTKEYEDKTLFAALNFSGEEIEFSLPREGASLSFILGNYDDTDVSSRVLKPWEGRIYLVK
Method: This assay used a method adapted from Johnson et al. with slight modifications employing α-glucosidase (enzyme) obtained from Saccharomyces cerevisiae (1 U/mL) dissolved in 50 mM phosphate buffer (pH 6.9). 100 µL of enzyme (in 0.1M phosphate buffer) was added into 96 microplate well containing 50 µL of sample/ standard 7.8–1000 µg/mL and incubated at 37 °C for 10 min. Next was the addition of 50 µL of the substrate, p-nitrophenyl glucopyranoside (5 mM in 0.1 phosphate buffer at pH 6.9) and re-incubated for 5 min at 37 °C. The reaction was terminated by the addition of 100 µL of 0.1 M Na2CO3 and absorbance was measured at 405 nm.
Experiments were conducted in triplicate.

α-glucosidase [7] = molecular target: α-glucosidase; design: method as in doi:10.1016/j.foodres.2014.01.029; conditions: isolated from Rhodiola crenulata root; cited from earlier work
human pancreatic amylase = conditions: cited from earlier work
[8] = Table 3, molar units, read-out: IC50 α-Glucosidase (converted)
[9] = mean ± SEM of triplicate, read-out: IC50 α-Glucosidase (converted)

Row | Molecule | IC50 [1] [µM] | IC50 DPPH Assay [1] | IC50 DPPH Assay ([1]; listed as ascorbic acid) [µg/mL] | IC50 [2] [µM] | IC50 ABTS Assay [2] | Dot-blot spot intensity, DPPH [3] | Dot-blot spot intensity, ABTS [4] | Dot-blot spot intensity, β-carotene [5] | IC50 α-Amylase (α-amylase) | IC50 (α-glucosidase [6]; read-out: IC50 α-Glucosidase (converted)) | IC50 (α-glucosidase [6]; [8]) [µM] | IC50 (α-glucosidase [6]; [9]) [µM] | IC50 (α-glucosidase [6]; IC50 α-Glucosidase, Table 3, molar units) [µM] | IC50 (α-glucosidase [6]; IC50 α-Glucosidase, mean ± SEM of triplicate) [µM] | IC50 (α-glucosidase [7]) [µM] | Ki (human pancreatic amylase) [µM]
1 | O=C1O[C@H]([C@@H](O)CO)C(O)=C1O [Ac, ascorbic acid, reference compound] | 140 | 24.67 ± 0.45 ^A µg/mL | 5.38 ± 1.26 (≈ 30.5 µM) | 95 | 16.74± 1.76 ^A µg/mL |  |  |  |  |  |  |  |  |  |  | 
2 | O=c1c(O)c(-c2ccc(O)cc2)oc2cc(O)cc(O)c12 [FEQ-3, kaempferol] | 39 | 11.29 ± 0.26 µg/mL (≈ 39.4 µM) |  | 7 | 2.10 ± 0.51 µg/mL (≈ 7.34 µM) | strong intensity | strong intensity | strong intensity |  |  |  |  |  |  |  | 
3 | O=c1c(O)c(-c2ccc(O)c(O)c2)oc2cc(O)cc(O)c12 [Qc, quercetin, reference compound] | 99 | 29.82 ± 3.73 ^A µg/mL |  |  |  |  |  |  |  |  |  |  |  |  |  | 
4 | Oc1cc(O)c2c(c1)O[C@H](c1ccc(O)c(O)c1)[C@@H](O)C2 [FEQ-7, (+)-catechin] | 43 | 12.48 ± 1.55 µg/mL (≈ 43 µM) |  | 6.4 | 1.86 ± 0.15 µg/mL (≈ 6.41 µM) | strong intensity | strong intensity | strong intensity | did not show any observable α-amylase inhibition | 351 µM and 350 µM |  |  |  |  |  | 
5 | CCCCCCOC(=O)/C=C/c1ccc(O)c(OC)c1 [FEQ-2, (E)-hexyl 3-(4-hydroxy-3-methoxyphenyl) acrylate] | 50 | 13.79 ± 2.13 µg/mL (≈ 49.5 µM) |  | 10 | 4.69 ± 1.25 µg/mL (≈ 16.8 µM) | strong intensity | strong intensity | strong intensity | did not show any observable α-amylase inhibition |  | 530 | 535 |  |  |  | 
6 | O=C(O)c1cc(O)c(O)c(O)c1 [FEQ-5, gallic acid] | 36 | 6.15 ± 0.38 µg/mL (≈ 36.2 µM) |  | 7.5 | 1.28 ± 0.89 µg/mL (≈ 7.52 µM) | strong intensity | strong intensity | strong intensity |  |  |  |  | 38 | 38.1 |  | 
7 | Cc1c(C)c2c(c(C)c1O)CCC(C)(C(=O)O)O2 (stereo not drawn) [Tx, 6-hydroxy-2,5,7,8-tetramethylchroman-2-carboxylic acid, reference compound] |  |  |  | 61 | 15.23 ± 2.15 ^A µg/mL |  |  |  |  |  |  |  |  |  |  | 
8 | Oc1cc(O)c2c(c1)O[C@H](c1ccc(O)c(O)c1)[C@H](O)C2 [FEQ-8, (−)-epicatechin] | 40 |  |  | 3.9 | 1.12 ± 0.09 µg/mL (≈ 3.86 µM) | strong intensity | strong intensity | strong intensity | did not show any observable α-amylase inhibition |  | 340 | 341 |  |  | 29.9 ± 2.2 | 
9 | COc1cc(O)c2c(=O)c(OC)c(-c3ccc(O)c(OC)c3)oc2c1 [FEQ-4, pachypodol] | 190 | 66.17 ± 8.03 µg/mL (≈ 192 µM) |  | 100 |  | low intensity | strong intensity | low intensity |  |  | 220 | 219 |  |  |  | 
10 | montbretin A |  |  |  |  |  |  |  |  |  |  |  |  |  |  |  | 0.008
